Among the data in ChEMBL document CHEMBL3997838, “Chemical constituents from Sophora tonkinensis and their glucose transporter 4 translocation activities” (Bioorg Med Chem Lett, 2017) are Activity and fold change (FC) values, retold here.

Calls of active or inactive are those of the source. The rule behind the calls is not given here.

For one assay, the target named is T1, Solute carrier family 2, facilitated glucose transporter member 4 (Rattus norvegicus) (UniProt P19357).
T1 sequence (whole entry): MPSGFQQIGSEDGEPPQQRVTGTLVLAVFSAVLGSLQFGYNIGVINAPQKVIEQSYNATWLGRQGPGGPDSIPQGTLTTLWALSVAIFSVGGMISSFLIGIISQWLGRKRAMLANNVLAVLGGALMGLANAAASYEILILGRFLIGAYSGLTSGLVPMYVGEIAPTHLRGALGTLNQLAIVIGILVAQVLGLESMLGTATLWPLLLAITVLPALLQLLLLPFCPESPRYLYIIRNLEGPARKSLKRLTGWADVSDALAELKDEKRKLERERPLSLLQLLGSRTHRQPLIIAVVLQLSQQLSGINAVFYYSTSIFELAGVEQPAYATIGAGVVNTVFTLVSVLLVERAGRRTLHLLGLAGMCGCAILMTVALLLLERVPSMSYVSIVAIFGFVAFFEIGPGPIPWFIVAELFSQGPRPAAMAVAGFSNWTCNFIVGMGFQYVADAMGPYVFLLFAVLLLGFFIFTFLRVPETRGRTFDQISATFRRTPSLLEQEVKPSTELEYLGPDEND
The experiment in a line: Enhancement of GLUT4 translocation at plasma membrane of rat L6 cells expressing pIRAP-mOrange at 10 uM after 30 mins by fluorescence assay relative to control.
As to `OC[C@H]1O[C@@H](Oc2ccc3c(c2)OC[C@H]2c4cc5c(cc4O[C@@H]32)OCO5)[C@H](O)[C@@H](O)[C@@H]1O`, the outcome was inactive.

With `CC(C)=CCc1cc([C@@H]2CC(=O)c3ccc(O)c(CC=C(C)C)c3O2)cc(CC=C(C)C)c1O`, the fold change (FC) worked out at 2.75.

`CC(=O)OC[C@H]1O[C@@H](Oc2ccc3c(c2)OC[C@H]2c4cc5c(cc4O[C@@H]32)OCO5)[C@H](O)[C@@H](O)[C@@H]1O`: the result was inactive.

For `Oc1ccc2c(c1)OC[C@H]1c3cc4c(cc3O[C@@H]21)OCO4`, the result was inactive.

For `CC(C)=CCc1c(O)c(CC=C(C)C)c2oc(-c3ccc(O)cc3)c(O)c(=O)c2c1O`, the fold change (FC) lay in the range of 1.35 to 2.75.

On to `CC(C)=CCc1cc([C@@H]2CC(=O)c3ccc(O)c(CC=C(C)C)c3O2)ccc1O`, for which the fold change (FC) lay in the range of 1.35 to 2.75.

For the molecule `CC(C)=CCc1cc2c(c(CC=C(C)C)c1O)O[C@H](c1ccc(O)cc1)CC2=O`, the fold change (FC) is 1.35 to 2.75.

Take `COc1ccc2c(c1)O[C@H]1c3ccc(O)cc3OC[C@@H]21`: the outcome was inactive.

`CC(C)=CCc1c2c(cc3c1O[C@H](c1ccc(O)cc1O)CC3=O)C=CC(C)(C)O2`: the fold change (FC) lay within 1.35 to 2.75.

Regarding `CC(C)=CCc1c(O)cc(O)c2c1OC[C@H]1c3cc4c(cc3O[C@@H]21)OCO4`, the fold change (FC) is 0.79.

With `CC(C)=CCc1cc([C@@H]2CC(=O)c3ccc(O)c(CC=C(C)C)c3O2)cc2c1OC(C)(C)C=C2`, the fold change (FC) lay within 1.35 to 2.75.

In the case of `O=c1c(O)c(-c2ccc(O)c(O)c2)oc2cc(O)cc(O)c12`, the outcome was inactive.

In a further assay the target is T1, Solute carrier family 2, facilitated glucose transporter member 4 (Rattus norvegicus). The experiment in a line: Enhancement of GLUT4 translocation at plasma membrane of rat L6 cells expressing pIRAP-mOrange after 30 mins by laser-scanning confocal microscopic method.
As for `CC(C)=CCc1cc([C@@H]2CC(=O)c3ccc(O)c(CC=C(C)C)c3O2)cc(CC=C(C)C)c1O`, the Activity result was “Dose-dependent effect”.

The target is the same in the next assay. Put plainly: Enhancement of GLUT4 translocation at plasma membrane of rat L6 cells expressing pIRAP-mOrange at […] after 30 mins by laser-scanning confocal microscopic method relative to control.
Take `CC(C)=CCc1cc([C@@H]2CC(=O)c3ccc(O)c(CC=C(C)C)c3O2)cc(CC=C(C)C)c1O`: the fold change (FC) was 2.7.
